The values below come from PMC5074515 (PLoS ONE, 2016).

The target of one data set is Mtb FtsZ (Mycobacterium tuberculosis, UniProt P9WN95). Nature of the data set: biochemical. It is filed as biochemical.
For the next data set, the system named is tubulin. Nature of the data set: Tubulin polymerization assay. It is filed as biochemical, human. As to conditions: for IC50: mean ± standard deviation, at least three times per assay, NA = not active up to 100 μM; for effect on human tubulin: at 100 μM.
The test system of a further data set is MAC NJ211. Nature of the data set: In vitro screen versus MAC NJ211 (Alamar blue microdilution broth assay, MIC99). It is filed as cell-based. As to conditions: for MIC99: read-out: MAC NJ211 MIC99. (The colour change of resazurin is a common sign of viable cells or microbes.)
The subject of another data set is Mtb H37Ra (ATCC 25177). The data set is described as follows: In vitro screen versus Mtb H37Ra (Alamar blue microdilution broth assay, MIC99). As to conditions: Mycobacterium tuberculosis. It is filed as cell-based, M. tuberculosis. As for the experimental part:
The initial screening set and selected other compounds were tested for their inhibitory activity against Mtb H37Ra (ATCC 25177) and MAC NJ211 strains. Screening was performed at 1.28 and 12.8 μg/mL in Middlebrook 7H9 broth supplemented with 0.2% glycerol and ADC enrichment using a colorimetric (Alamar blue) microdilution broth assay by reported methods.[15]

In data set [1] the test system is Mtb H37Rv. Nature of the data set: In vitro qHTS assay against Mtb H37Rv (IC90). It is filed as cell-based, M. tuberculosis. As to conditions: Mycobacterium tuberculosis, H37RV; for IC90: concentration that inhibits bacterial growth by 90%, read-out: Mtb H37Rv IC90. (Quantitative high-throughput screening tests each substance at several concentrations.)
In data set [2] the test system is M. tuberculosis 41 (Mtb 41) FtsZ reporter strain. It is filed as cell-based.
The conditions of data set [3]: cited from earlier work.
The nature of data set [4]: Rapid PK mouse model (bioavailability). As to conditions: mice, oral gavage, 300 mg/kg.
Another data set in a line: in vitro. As to conditions: African green monkey.
Another data set concerns Vero cells. Nature of the data set: Cytotoxicity (CC50) in Vero cells, TAACF. As to conditions: CC50 in Vero cells to IC90 against Mtb H37Rv.
Data set [5] can be described thus: Cytotoxicity (CC50) in Vero cells, TAACF. As to conditions: African green monkey.
The subject of data set [6] is Mtb H37Rv. The data set is described as follows: TAACF Alamar blue assay against Mtb H37Rv (IC90). It is filed as cell-based, M. tuberculosis. As to conditions: Mycobacterium tuberculosis.
Data set [7] is described as follows: Acute toxicity mouse model. As to conditions: single dose of 300 mg/kg. It is filed as in vivo, mice.
[8] abbreviates: lowest drug concentration that completely inhibited growth.
[9] abbreviates: lowest drug concentration that completely inhibited growth, read-out: Mtb H37Ra MIC99.
Setting [10] is: same MIC99 given in μM, read-out: Mtb H37Ra MIC99 (concentration in μM in parentheses).
Setting [11] is: mean ± standard deviation, at least three times per assay, NA = not active up to 100 μM, read-out: Mtb FtsZ Polymerization IC50.

In brackets after ≈: the same amount, converted by molar mass. Where two headings read alike, the source gives them in different places.

Broadly, the IC50 is the concentration at which inhibition is half-maximal. One may read the melting point as the temperature of the solid-liquid transition. Broadly, the inhibition is the change of the read-out against control, counted positive when it falls. As usually defined, the MIC is the lowest concentration found to suppress growth.

Mtb FtsZ, sequence (P9WN95 whole entry): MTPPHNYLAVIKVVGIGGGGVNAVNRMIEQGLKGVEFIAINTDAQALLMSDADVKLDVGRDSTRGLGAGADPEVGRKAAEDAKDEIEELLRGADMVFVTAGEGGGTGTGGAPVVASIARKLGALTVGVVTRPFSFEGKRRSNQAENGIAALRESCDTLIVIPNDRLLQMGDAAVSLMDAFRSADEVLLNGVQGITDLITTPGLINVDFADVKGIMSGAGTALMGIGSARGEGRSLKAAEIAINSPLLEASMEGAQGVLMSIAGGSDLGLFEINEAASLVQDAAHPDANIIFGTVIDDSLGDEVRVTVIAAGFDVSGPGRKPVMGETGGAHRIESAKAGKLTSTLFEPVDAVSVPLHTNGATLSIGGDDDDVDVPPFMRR

As for `C[n+]1cc2c3c(ccc2c2ccc4cc5c(cc4c21)OCO5)OCO3` [Compound 10, Sanguinarine Cl‾ • H2O], the values for the IC50 against Mtb FtsZ and in the data set on tubulin were 23 ± 4 µM and 30 ± 7 µM, respectively. The MIC99 with MAC NJ211 (setting [8]) was > 64 µg/mL; with Mtb H37Ra (ATCC 25177) (setting [9]), 64 µg/mL; in the data set with Mtb H37Ra (ATCC 25177) (setting [10]) it was 193 µM.

In the case of `COc1cc(/C=C2\C=C(CC(=O)NCCN3CCCC3)c3cc(F)ccc32)cc(OC)c1OC` [Compound 63, (E)-2-(5-fluoro-1-(3,4,5-trimethoxybenzylidene)-1H-inden-3-yl)-N-(2-(pyrrolidin-1-yl)ethyl)acetamide], at Mtb FtsZ (setting [11]), the IC50 came out at 37.6 ± 5.7 µM. In addition, the IC90 with Mtb H37Rv [1] came out at 25.5 ± 0.33 µM. In addition, the “FtsZ ring assembly in Mtb 41” value in data set [2] is “inhibit FtsZ ring assembly”. For the same compound, the “growth of Mtb 41” value in data set [2] was “significant growth inhibition”. The “bacterial cell length of Mtb 41” value in data set [2] (75 μM, brightfield microscopy) was “clear increase in bacterial cell length”. The MIC99 with MAC NJ211 (setting [8]) is > 64 µg/mL; in the data set on Mtb H37Ra (ATCC 25177) (setting [9]), 32 µg/mL; in the data set with Mtb H37Ra (ATCC 25177) (setting [10]) it was 68.5 µM.

As for `CSc1ccc(/C=C2/C(C)=C(CC(=O)NCCN3CCCCC3)c3cc(F)ccc32)cc1` [Compound 24, (Z)-2-(5-Fluoro-2-methyl-1-(4-(methylthio)benzylidene)-1H-inden-3-yl)-N-(2-(piperidin-1-yl)ethyl)acetamide], the melting point was 130 to 133 °C. Moreover, the IC50 at Mtb FtsZ (setting [11]) came to 26.5 ± 4.8 µM. In addition, the IC90 in the data set with Mtb H37Rv [1] turned out to be 1.41 ± 0.03 µM. For the same compound, in the data set on tubulin, the IC50 is > 100 µM.

For `CSc1ccc(/C=C2/C(C)=C(CC(=O)NCCN(C)C)c3cc(F)ccc32)cc1` [Compound 18, (Z)-N-(2-(dimethylamino)ethyl)-2-(5-fluoro-2-methyl-1-(4-(methylthio)benzylidene)-1H-inden-3-yl)acetamide], on Mtb FtsZ (setting [11]), the IC50 is 39.4 ± 4.9 µM. Besides, the IC90 with Mtb H37Rv [1] was 7.29 ± 0.23 µM. For the same compound, the results for the “effect on human tubulin” value with tubulin and in the data set on tubulin (listed as SSA) were “no effect” and “no inhibition”, respectively. The figures for the MIC99 in the data set on MAC NJ211 (setting [8]), with Mtb H37Ra (ATCC 25177) (setting [9]) and in the data set with Mtb H37Ra (ATCC 25177) (setting [10]) were 16 µg/mL (≈ 39 µM), 8 µg/mL and 19.5 µM, respectively. The “tolerated dose in mice” value in [3] (over 17 days) was “up to 300 mg/kg”.

For `CSc1ccc(/C=C2/C(C)=C(CC(=O)O)c3cc(F)ccc32)cc1` [Sulindac sulfide, reference compound], in data set [3] (over 20 days), the “tolerated dose in mice” value was “up to 50 mg/kg”.

On to `CSc1ccc(/C=C2\C(C)=C(CC(=O)NCCN(C)C)c3cc(F)ccc32)cc1` [Compound 61, (E)-N-(2-(Dimethylamino)ethyl)-2-(5-fluoro-2-methyl-1-(4-(methylthio)benzylidene)-1H-inden-3-yl)acetamide], for which the IC50 on Mtb FtsZ (setting [11]) was determined as 44.6 ± 6.3 µM. Further, the IC90 in the data set on Mtb H37Rv [1] was determined as 7.7 ± 0.33 µM. Besides, the MIC99 in the data set with MAC NJ211 (setting [8]) is 16 µg/mL (≈ 39 µM); with Mtb H37Ra (ATCC 25177) (setting [9]), 16 µg/mL.

Take `COc1cc(/C=C2\C=C(CC(=O)NCCN(C)C)c3cc(F)ccc32)cc(OC)c1OC` [Compound 62, (E)-N-(2-(dimethylamino)ethyl)-2-(5-fluoro-1-(3,4,5-trimethoxybenzylidene)-1H-inden-3-yl)acetamide]: the IC50 on Mtb FtsZ (setting [11]) was 43.3 ± 9.8 µM. For the same compound, at 50 µM the inhibition with Mtb H37Rv [1] (at 50 μM) was 82%. Also, the IC90 with Mtb H37Rv [1] is > 100 µM. Moreover, in data set [2], the “FtsZ ring assembly in Mtb 41” value is given as “inhibit FtsZ ring assembly”. Moreover, the “growth of Mtb 41” value in [2] is “significant growth inhibition”. The MIC99 with MAC NJ211 (setting [8]) is > 64 µg/mL; in the data set on Mtb H37Ra (ATCC 25177) (setting [9]), 32 µg/mL; in the data set with Mtb H37Ra (ATCC 25177) (setting [10]), 72.5 µM.

Take `C=CCOc1c(Br)cc(S(=O)(=O)c2cc(Br)c(O)c(Br)c2)cc1Br` [Compound 7, Zantrin Z4]: the 50% inhibitory concentration (IC50) with tubulin was found to be 77 ± 3 µM. The MIC99 in the data set on MAC NJ211 is > 64 µg/mL; with Mtb H37Ra (ATCC 25177) (setting [9]), 64 µg/mL.

For the compound `CC[n+]1c(/C=C/N(C)c2ccccc2)n(-c2ccccc2)c2ccc(-c3nc4ccccc4s3)cc21` [Compound 8, Zantrin Z2], the IC50 on Mtb FtsZ (setting [11]) was 3.5 ± 0.3 µM; in the data set on tubulin, > 100 µM. The Bioavailability entry in data set [4] was “no bioavailability and None”. Also, the MIC with MAC NJ211 (setting [8]) and in the data set with Mtb H37Ra (ATCC 25177) (setting [8]) was 1 µg/mL in each case. Also, the figures for the CC50 (in “in vitro”; in data set [5]) were 1.7 µg/mL and 3.49 µM, respectively. In the data set with Vero cells, the “Selectivity Index (CC50/IC90)” value was determined as 1.09. The IC90 with Mtb H37Rv [6] (read-out: Mtb H37Rv IC90) turned out to be 1.56 µg/mL; in the data set on Mtb H37Rv [6] (read-out: Mtb H37Rv IC90 (concentration in µM in parentheses)) it was 3.2 µM. In addition, the “ill effects to the mice” value in data set [7] is “no ill effects”.
